Experimental data: patent publication US6933392B2, “Hydroxy substituted fused naphthyl-azoles and fused indeno-azoles and their use for the treatment of glaucoma” (Alcon, Inc., priority 2001, dated 2005)
Where a name gives a salt, the structure may show the parent alone. Read-outs that look alike come from different tables or passages of the source.

Tests used:
brain 5-HT2 receptors = brain 5-HT2 receptors (Rattus norvegicus, UniProt P14842); test: 5-HT2 receptor binding assay ([125I]DOI competition); conditions: competition for [125I]DOI binding, rat or human cerebral cortex homogenates
Description: 5-HT2 Receptor Binding Assay
The assay mixture is incubated for 1 hour at 23° C. in polypropylene tubes and the assays terminated by rapid vacuum filtration over Whatman GF/B glass fiber filters previously soaked in 0.3% polyethyleneimine using ice-cold buffer. Test compounds (at different concentrations) are substituted for methiothepin. Filter-bound radioactivity is determined by scintillation spectrometry on a beta counter. The data are analyzed using a non-linear, iterative curve-fitting computer program [Trends Pharmacol. Sci., 16, 413 (1995)] to determine the compound affinity parameter. The concentration of the compound needed to inhibit the [^125I]DOI binding by 50% of the maximum is termed the IC50 or Ki value.

[1] = molecular target: T1, 5-HT2 receptors in A7r5 rat vascular smooth muscle cells (Rattus norvegicus, UniProt P14842); test: 5-HT2 functional assay: [Ca2+]i mobilization (FLIPR); assay type: cell-based; conditions: for Emax: read-out: Efficacy (Emax, %)
T1 construct: endogenous in cells; host or cells: A7r5 rat vascular smooth muscle cells
Description: 5-HT2 Functional Assay: [Ca^2+]i Mobilization
The receptor-mediated mobilization on intracellular calcium ([Ca^2+]i) was studied using the Fluorescence Imaging Plate Reader (FLIPR) instrument. Rat vascular smooth muscle cells, A7r5, were grown in a normal media of DMEM/10% FBS and 10 μg/mL gentamycin. Confluent cell monolayers were trypsinized, pelleted, and re-suspended in normal media. Cells were seeded in a 50 μL volume at a density of 20,000 cells/well in a black wall, 96-well tissue culture plate and grown for 2 days.
On the day of the experiment, one vial of FLIPR Calcium Assay Kit dye was re-suspended in 50 mL of a FLIPR buffer consisting of Hank's Balanced Salt Solution (HBSS), 20 mM HEPES, and 2.5 mM probenecid, pH 7.4. Cells were loaded with the calcium-sensitive dye by addition of an equal volume (50 μL) to each well of the 96-well plate and incubated with dye for 1 h at 23° C.
Compounds were diluted 1:50 in 20% DMSO/20% ethanol. For “hit” screening, compounds were further diluted 1:10 in FLIPR buffer and tested at a final concentration of 10 μM.
The compound plate and cell plate were placed in the FLIPR instrument. At the beginning of an experimental run, a signal test was performed to check the basal fluorescence signal from the dye-loaded cells and the uniformity of the signal across the plate. The basal fluorescence was adjusted between 8000-12000 counts by modifying the exposure time, the camera F-stop, or the laser power. Instrument settings for a typical assay were the following: laser power 0.3-0.6 W, camera F-stop F/2, and exposure time 0.4 sec. An aliquot (25 μL) of the test compound was added to the existing 100 μL dye-loaded cells at a dispensing speed of 50 μL/sec. Fluorescence data were collected in real-time at 1.0 sec intervals for the first 60 secs and at 6.0 sec intervals for an additional 120 secs.

[2] = A7r5 cells, FLIPR, percentage of maximum 5-HT-induced response
[3] = A7r5 cells, FLIPR, read-out: EC50, nM (5-HT2 functional, [Ca2+]i mobilization)

T1 sequence (P14842 whole entry): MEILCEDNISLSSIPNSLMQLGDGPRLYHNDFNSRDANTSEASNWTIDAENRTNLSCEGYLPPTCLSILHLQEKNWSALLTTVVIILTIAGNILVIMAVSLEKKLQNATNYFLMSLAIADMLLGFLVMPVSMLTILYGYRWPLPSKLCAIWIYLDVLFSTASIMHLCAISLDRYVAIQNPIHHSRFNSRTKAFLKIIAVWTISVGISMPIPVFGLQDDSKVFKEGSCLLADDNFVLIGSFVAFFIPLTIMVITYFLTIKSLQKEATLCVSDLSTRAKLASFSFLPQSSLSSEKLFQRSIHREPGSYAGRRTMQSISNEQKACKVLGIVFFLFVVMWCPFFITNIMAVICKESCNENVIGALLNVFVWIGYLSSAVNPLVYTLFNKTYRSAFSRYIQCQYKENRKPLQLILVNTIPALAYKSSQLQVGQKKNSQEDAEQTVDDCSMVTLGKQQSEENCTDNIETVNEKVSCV
Sequence of brain 5-HT2 receptors (P14842 whole entry): as above

COc1cc(CC(C)N)c(OC)cc1I (stereo not shown) [DOI, reference compound]
IC50 (brain 5-HT2 receptors): 0.33 nM
Efficacy (Emax, %) [1, 2]: 31%
EC50 [1, 3]: 30.2 nM

CC(N)Cn1ncc2c1-c1cc(O)ccc1CC2 (stereo not shown) [Example 2, 1-(2-Aminopropyl)-4,5-dihydro-1H-benzo[g]indazol-8-ol Dihydrochloride]
Emax [1, 2]: 46%
EC50 [1, 3]: 103 nM

CC(N)Cn1ncc2ccc3cc(O)ccc3c21 (stereo not shown) [Example 4, 1-(2-Aminopropyl)-2H-benzo[g]indazol-7-ol]
EC50 [1]: 211 nM
Emax [1, 2]: 79%

CC(N)Cn1ncc2c1-c1ccc(O)cc1C2 (stereo not shown) [Example 5, 1-(2-Aminopropyl)-1,4-dihydro-indeno[1,2-c]pyrazol-6-ol]
Emax [1, 2]: 64%
EC50 [1, 3]: 328 nM

NCCc1c[nH]c2ccc(O)cc12 [Example 5-HT, 5-Hydroxytryptamine, reference compound]
Emax [1, 2]: 107%
